# Data published in patent US20220241236A1, “DIETARY BUTYRATE AND ITS USES” (SOCIETE DES PRODUITS NESTLE S.A., priority 2019, published 2022).
# Entries after “also recorded” stand apart in the source; their conditions may differ.
# Tests used:
# [1] = target: T1, porcine pancreatic lipase (from pancreatin) (Sus scrofa, UniProt P00591); experiment: In vitro lipolysis in simulated intestinal fluid (SIF model), pH-stat; format: in vitro ADME; settings: SIF alone; emulsion with 200 mg fat; pH 6.8, 37° C.
# T1 construct: pancreatin (Porcine, USP×8, P7585); purchased Sigma-Aldrich P7585; host or cells: porcine pancreas extract (pancreatin)
# T1 sequence (P00591 1-450): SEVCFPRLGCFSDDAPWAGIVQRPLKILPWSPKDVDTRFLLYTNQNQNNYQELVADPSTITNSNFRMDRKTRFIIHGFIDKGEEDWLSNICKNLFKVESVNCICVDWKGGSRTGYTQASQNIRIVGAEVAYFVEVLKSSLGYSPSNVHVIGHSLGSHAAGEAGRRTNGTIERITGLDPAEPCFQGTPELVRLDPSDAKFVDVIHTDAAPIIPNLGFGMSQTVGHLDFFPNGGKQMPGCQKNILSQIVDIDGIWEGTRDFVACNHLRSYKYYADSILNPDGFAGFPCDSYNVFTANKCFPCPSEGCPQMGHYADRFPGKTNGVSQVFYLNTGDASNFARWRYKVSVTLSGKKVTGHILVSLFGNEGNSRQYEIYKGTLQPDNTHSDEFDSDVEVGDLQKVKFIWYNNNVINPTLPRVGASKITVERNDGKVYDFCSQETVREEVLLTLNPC
# T1 sequence (P02703 23-112 partner): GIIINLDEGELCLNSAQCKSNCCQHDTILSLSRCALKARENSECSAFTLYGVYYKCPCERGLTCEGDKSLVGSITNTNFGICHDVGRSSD
# Protocol: (§1) 10 wt % oil in water emulsions stabilised by 0.3 wt % polyoxyethylene sorbitan mono-oleate (Tween® 80) were prepared by mixing the Tween 80 into the oil phase at 40° C., then mixing with the water phase using a magnetic stirrer. An emulsion was then created using a Hielscher UP 400S ultrasonic probe homogeniser equipped with a 5 mm diameter rod-like probe by applying 100% amplitude at 100% cycle for 2 minutes whilst the sample was cooled using ice water.
# (§2) The lipid emulsion (2 mL) containing 200 mg of fat was subjected to gastrointestinal in vitro lipolysis. […] For gastric digestion, the sample was incubated for 90 minutes with 8.5 mL of simulated gastric fluid (SGF), which consisted of 150 mM NaCl, 450 U/mL pepsin, 18 U/mL rabbit gastric lipase at 37° C. and a pH of 5.5.
# The intestinal digestion step was performed in the pH stat where the pH was kept constant at 6.8 by addition of NaOH (0.05 M). […] The intestinal digestion step starts when the temperature reaches 37±0.5° C. The pH was adjusted to pH 6.8 and after incubation of two minutes at this pH and temperature, a pancreatin solution (5 mM tris, 150 mM NaCl at pH 6.8) was added. […] During the intestinal phase of digestion, the kinetics of digestion were followed using a pH-stat (TIM856, Radiometer) technique and expressed as titratable acid (rather than fatty acid) that was calculated by the equation: […]
# [2] = test system: rabbit gastric lipase (RGL) followed by porcine pancreatic lipase (PPL); experiment: Sequential in vitro digestion SGF (RGL) followed by SIF (PPL), pH-stat; format: in vitro ADME
# Protocol: as §1, §2
# The intestinal digestion step was performed in the pH stat where the pH was kept constant at 6.8 by addition of NaOH (0.05 M). […] The intestinal digestion step starts when the temperature reaches 37±0.5° C. The pH was adjusted to pH 6.8 and after incubation of two minutes at this pH and temperature, a pancreatin solution (5 mM tris, 150 mM NaCl at pH 6.8) was added. The final composition of the intestinal fluid was 10 mM CaCl2, 12 mM mixed bile salts, 0.75 mM phospholipid, 150 mM NaCl and 4 mM tris(hydroxymethyl)aminomethane buffer. The intestinal digestion step was carried out for 3 hours in a titration manager from Radiometer. During the intestinal phase of digestion, the kinetics of digestion were followed using a pH-stat (TIM856, Radiometer) technique and expressed as titratable acid (rather than fatty acid) that was calculated by the equation:
# TA: Total titratable acid released, mmol; VNaoH: volume of NaOH used to titrate the released acid in 3 h, mL.
compound,measurement,setting,value
CCCC(=O)OCC(COC(=O)CCC)OC(=O)CCC [tributyrin],initial rate of lipolysis,[1],223 ± 59 µmol/min
same,initial lipolysis rate in SIF,[2]; SGF-SIF sequential digestion (after pre-exposure to RGL),44.1 ± 8.8 µmol/min
same,extent of gastric lipolysis / hydrolysis in the stomach,[2]; gastric compartment of the model,considerable digestion; also recorded: extensive hydrolysis in the stomach
same,lipolysis by gastric lipase,[2]; indicated by decreased total fatty acid release in SIF after RGL pre-exposure,~60%
